Experimental data reported in the supplement of paper PMC10307832.

Compound: CNC(=O)c1cc(Oc2ccc(NC(=O)Nc3ccc(Cl)c(C(F)(F)F)c3)cc2)ccn1 [Sorafenib] + CC1(C)CCC(c2ccc(Cl)cc2)=C(CN2CCN(c3ccc(C(=O)NS(=O)(=O)c4ccc(N[C@H](CCN5CCOCC5)CSc5ccccc5)c(S(=O)(=O)C(F)(F)F)c4)cc3)CC2)C1 [Navitoclax] (partner 0.5 µM)
Assay: relative viability (nuclei count vs DMSO), 5 days (fraction); higher = more cells survive
Outline: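 Relative viability divides the nuclei count in treated wells by that in vehicle wells. Lung cancer cell lines were seeded in 1536-well plates, dosed by pin tool the next day, and fixed and stained after 5 days in one step with final 0.05% Triton X-100, 1% formaldehyde and 1 ug/ml Hoechst. Dosing was a single drug or a fixed anchor-drug dose plus five library-drug doses (not always all listed) in √10 steps, and values are medians of duplicate plates imaged at 4×.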

Row | Cell Line | relative viability (first compound 0.08 µM) | relative viability (first compound 0.253 µM) | relative viability (first compound 2.53 µM) | relative viability (first compound 8 µM)
1 | NCI-H1437 | 1.05 | 1.03 | 0.91 | 0.438
2 | HOP-62 | 1.14 | 0.758 | 0.761 | 0.814
3 | LCLC-97TM1 | 0.356 | 0.373 | 0.323 | 0.313
4 | NCI-H2009 | 1.11 | 1.02 | 1.1 | 0.937
5 | NCI-H647 | 1.2 | 1.09 | 0.97 | 0.538
6 | NCI-H3122 | 1.04 | 1.06 | 1.03 | 0.753
7 | BEN | 0.09 | 0.0558 | 0.0776 | 0.0641
8 | COR-L23 | 1.03 | 0.898 | 1.1 | 0.485
9 | NCI-H2228 | 0.784 | 0.706 | 0.828 | 0.477
10 | NCI-H2405 | 1.16 | 0.88 | 0.7 | 0.348
11 | NCI-H1666 | 1.01 | 0.953 | 0.752 | 0.577
12 | A-427 | 0.946 | 0.917 | 0.985 | 0.563
13 | COR-L 105 | 0.792 | 0.821 | 0.89 | 0.865
14 | NCI-H1755 | 1.02 | 0.987 | 0.924 | 0.705
15 | NCI-H23 | 0.996 | 0.768 | 0.806 | 0.705
16 | SK-MES-1 | 1.17 | 1.26 | 1.22 | 
17 | UMC-11 | 0.32 |  | 0.34 | 0.152
18 | LC-2-ad | 0.343 | 0.413 | 0.418 | 0.218
19 | LU99A | 0.811 | 0.669 | 0.72 | 0.579
20 | NCI-H2023 | 1.02 | 0.984 | 1.01 | 0.978
21 | NCI-H1944 | 1.06 | 1.06 | 1.18 | 0.872
22 | NCI-H1651 | 1.04 | 0.985 | 1.04 | 0.472

Row | Cell Line | relative viability (first compound 0.08 µM) | relative viability (first compound 0.253 µM) | relative viability (first compound 2.53 µM) | relative viability (first compound 8 µM)
23 | SK-LU-1 | 0.926 |  | 0.729 | 0.207
24 | CAL-12T | 1.32 | 1.19 | 1.06 | 0.64
25 | EMC-BAC-2 | 1.22 | 1.06 | 1.18 | 1.11
26 | NCI-H838 | 1.23 | 1.26 | 1.29 | 
27 | NCI-H460 | 1.2 | 1.02 | 1.12 | 0.231
28 | HCC-15 | 0.748 | 0.713 | 0.804 | 0.522
29 | PC-14 | 1.02 | 0.949 | 0.888 | 0.955
30 | NCI-H1395 | 1.35 | 1.08 | 1.1 | 1.05
31 | NCI-H727 | 0.604 | 0.632 | 0.675 | 0.369
32 | HCC-366 | 1.11 | 0.944 | 1.06 | 1.01
33 | NCI-H2085 | 1.21 | 1.07 | 1.17 | 0.901
34 | ChaGo-K-1 | 1.23 | 0.866 | 1.11 | 0.576
35 | PC-3 [JPC-3] | 0.883 | 0.775 | 0.806 | 0.877
36 | HCC-78 | 0.814 | 0.731 | 0.739 | 0.84
37 | NCI-H2170 | 0.615 | 0.57 | 0.64 | 0.502
38 | NCI-H2126 | 0.892 | 0.782 | 0.888 | 0.867
39 | NCI-H2347 | 0.932 | 0.676 | 0.84 | 0.815
40 | RERF-LC-KJ | 0.932 | 1.11 | 0.867 | 0.705
41 | 201T | 1.19 | 1.24 | 1.27 | 1.18
42 | NCI-H1915 | 0.785 | 0.706 | 0.681 | 0.798
43 | NCI-H1793 | 0.569 | 0.476 | 0.932 | 0.39
44 | NCI-H1734 | 0.858 | 0.721 | 0.721 | 0.492

Row | Cell Line | relative viability (first compound 0.08 µM) | relative viability (first compound 0.253 µM) | relative viability (first compound 2.53 µM) | relative viability (first compound 8 µM)
45 | LOU-NH91 | 0.82 | 0.742 | 0.86 | 0.61
46 | HARA | 1.17 | 1.08 |  | 1.13
47 | NCI-H520 | 1.21 | 1.08 |  | 0.358
48 | HCC-44 |  | 0.92 | 1.03 | 0.909
49 | NCI-H596 | 0.892 | 1.13 | 1.02 | 1.02
50 | LK-2 | 0.904 | 0.793 | 0.819 | 0.477
51 | IA-LM | 0.579 | 0.385 | 0.488 | 0.438
52 | NCI-H1703 | 1.03 | 0.319 | 0.215 | 0.148
53 | EKVX | 1.13 | 0.882 | 0.884 | 0.963
54 | EPLC-272H | 1.22 | 1.14 | 1.04 | 0.96
55 | NCI-H2087 | 1.05 | 0.772 | 0.892 | 0.29
56 | NCI-H1792 | 0.671 | 0.51 | 0.585 | 0.544
57 | NCI-H322M | 1.19 | 1.25 | 1.34 | 1.16
58 | LXF-289 | 0.971 | 0.959 | 0.999 | 0.943
59 | HCC-827 | 1.04 | 1.04 | 0.984 | 0.905
60 | SW 1573 | 1.1 | 0.947 | 0.983 | 0.689
61 | NCI-H1355 | 0.916 | 0.983 | 0.86 | 0.668
62 | NCI-H1650 | 1.2 | 1.1 | 1.29 | 1.29
63 | NCI-H1975 | 1.01 | 1.1 | 1.18 | 0.853
64 | H3255 | 0.652 | 0.46 | 0.616 | 0.502
65 | NCI-H1993 | 1.07 | 0.973 | 0.914 | 0.753
66 | NCI-H441 | 0.488 | 0.431 | 0.471 | 0.417
